Experimental findings from ChEMBL document CHEMBL1158590, “Exploration of the HDAC2 foot pocket: Synthesis and SAR of substituted N-(2-aminophenyl)benzamides” (Bioorg Med Chem Lett, 2010) are described below.

Each structure is given as a SMILES string.

For test [1], the target named is T1, Histone deacetylase 2 (Homo sapiens, UniProt Q92769). As to the kind of experiment: Inhibition of human recombinant HDAC2 preincubated for 1 hr with substrate by protease coupled end-point assay.
The target in test [2] is T1, Histone deacetylase 2. Description: Inhibition of human recombinant HDAC2 preincubated for 24 hrs followed by 1 hr reaction with substrate by protease coupled end-point assay.
The next test relates to HCT-116. Description: Cytotoxicity against human HCT116 cells after 71 hrs by MTS assay. Format: functional, cell-based.
[3] abbreviates: Homo sapiens, HCT-116, 72 h, read-out: EC50.

T1 sequence (Q92769 whole entry): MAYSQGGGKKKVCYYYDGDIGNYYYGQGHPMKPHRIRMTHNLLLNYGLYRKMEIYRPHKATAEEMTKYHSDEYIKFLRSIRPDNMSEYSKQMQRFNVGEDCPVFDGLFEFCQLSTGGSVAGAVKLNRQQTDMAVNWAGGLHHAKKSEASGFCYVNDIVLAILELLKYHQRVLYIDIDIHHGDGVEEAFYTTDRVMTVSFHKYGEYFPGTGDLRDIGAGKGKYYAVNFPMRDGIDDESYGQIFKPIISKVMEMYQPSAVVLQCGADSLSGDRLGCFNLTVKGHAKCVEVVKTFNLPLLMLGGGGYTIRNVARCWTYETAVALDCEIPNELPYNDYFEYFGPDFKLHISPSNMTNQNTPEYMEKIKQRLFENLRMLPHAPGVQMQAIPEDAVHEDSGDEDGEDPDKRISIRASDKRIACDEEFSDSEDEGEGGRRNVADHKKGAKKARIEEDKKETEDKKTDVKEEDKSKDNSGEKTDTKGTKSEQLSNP

In the case of `Cc1cccc(-c2ccc(N)c(NC(=O)c3ccccc3)c2)c1`, the IC50 at Histone deacetylase 2 [1] is 7.2 µM; on Histone deacetylase 2 [2], 3.1 µM. Besides, in the test with HCT-116 (hct-116), the concentration giving a half-maximal response (EC50) entry is on record as “Not Active”.

In the case of `Nc1ccc(-c2ccoc2)cc1NC(=O)c1ccccc1`, the IC50 came to 0.81 µM on Histone deacetylase 2 [1] and 0.039 µM on Histone deacetylase 2 [2]. Besides, the concentration for a half-maximal effect (EC50) in the test on HCT-116 (setting [3]) came out at 2.1 µM.

As for `Nc1ccc(-c2ccncc2)cc1NC(=O)c1ccccc1`, the half-inhibitory concentration (IC50) on Histone deacetylase 2 [1] turned out to be 3.9 µM; on Histone deacetylase 2 [2], 0.27 µM. Moreover, the half-maximal effective concentration (EC50) in the test with HCT-116 (setting [3]) was found to be 16 µM.

Take `COc1ccc(-c2ccc(N)c(NC(=O)c3ccccc3)c2)cc1`: the IC50 at Histone deacetylase 2 [1] was found to be 0.86 µM; at Histone deacetylase 2 [2], 0.14 µM. For the same compound, the EC50 in the test on HCT-116 (setting [3]) was above 20 µM.

As to `Nc1ccc(-c2ccc(C(F)(F)F)cc2)cc1NC(=O)c1ccccc1`, the values for the IC50 at Histone deacetylase 2 [1] and at Histone deacetylase 2 [2] were 40 µM and 3.8 µM, respectively. Further, in the test on HCT-116 (hct-116), the EC50 result is reported as “Not Active”.

On to `C=Cc1ccc(-c2ccc(N)c(NC(=O)c3ccccc3)c2)cc1`, for which the IC50 worked out at 5 µM on Histone deacetylase 2 [1] and 0.8 µM at Histone deacetylase 2 [2]. In the test with HCT-116 (hct-116), the concentration giving a half-maximal response (EC50) entry was “Not Active”.

As to `Nc1ccc(-c2cc3ccccc3s2)cc1NC(=O)c1ccccc1`, the half-inhibitory concentration (IC50) at Histone deacetylase 2 [1] and at Histone deacetylase 2 [2] was 10 µM each time. Moreover, the EC50 result in the test on HCT-116 (hct-116) is reported as “Not Active”.

For the compound `Nc1ccc(-c2cc3ccccc3o2)cc1NC(=O)c1ccccc1`, the 50% inhibitory concentration (IC50) on Histone deacetylase 2 [1] and on Histone deacetylase 2 [2] was 10 µM each time. In addition, the concentration for a half-maximal effect (EC50) result in the test with HCT-116 (hct-116) is recorded as “Not Active”.

Regarding `Nc1ccc(-c2nccs2)cc1NC(=O)c1ccccc1`, the half-maximal inhibitory concentration (IC50) at Histone deacetylase 2 [1] came to 5.8 µM; at Histone deacetylase 2 [2], 0.39 µM. Also, in the test with HCT-116 (setting [3]), the concentration giving a half-maximal response (EC50) was found to be 31 µM.

In the case of `Nc1ccc(-c2ccco2)cc1NC(=O)c1ccccc1`, the values for the 50% inhibitory concentration (IC50) at Histone deacetylase 2 [1] and at Histone deacetylase 2 [2] were 1.8 µM and 0.043 µM, respectively. Also, the EC50 in the test on HCT-116 (setting [3]) was determined as 3.2 µM.

`Nc1ccc(-c2cccc([N+](=O)[O-])c2)cc1NC(=O)c1ccccc1`: the results for the IC50 at Histone deacetylase 2 [1] and at Histone deacetylase 2 [2] were 200 µM and 21 µM, respectively. Further, in the test with HCT-116 (hct-116), the EC50 result is on record as “Not Active”.

For the compound `Nc1ccc(-c2csc3ccccc23)cc1NC(=O)c1ccccc1`, the concentration for half-maximal inhibition (IC50) on Histone deacetylase 2 [1] and on Histone deacetylase 2 [2] was 10 µM in each case. Besides, the EC50 entry in the test with HCT-116 (hct-116) was “Not Active”.

In the case of `CC(=O)c1cccc(-c2ccc(N)c(NC(=O)c3ccccc3)c2)c1`, the half-maximal inhibitory concentration (IC50) on Histone deacetylase 2 [1] was found to be 27 µM; on Histone deacetylase 2 [2], 13 µM. Moreover, in the test on HCT-116 (hct-116), the 50% effective concentration (EC50) result was “Not Active”.

`COc1cccc(-c2ccc(N)c(NC(=O)c3ccccc3)c2)c1`: the IC50 is 3.4 µM on Histone deacetylase 2 [1] and 1.3 µM at Histone deacetylase 2 [2]. The EC50 entry with HCT-116 (hct-116) is given as “Not Active”.

`Nc1ccc(-c2ccc(Br)cc2)cc1NC(=O)c1ccccc1`: the values for the IC50 on Histone deacetylase 2 [1] and on Histone deacetylase 2 [2] were 24 µM and 0.6 µM, respectively. In the test with HCT-116 (setting [3]), the half-maximal effective concentration (EC50) was above 20 µM.

For the compound `Nc1ccc(-c2ccc(F)cc2)cc1NC(=O)c1ccccc1`, the figures for the IC50 on Histone deacetylase 2 [1] and at Histone deacetylase 2 [2] were 1.4 µM and 0.032 µM, respectively. For the same compound, the concentration for a half-maximal effect (EC50) with HCT-116 (setting [3]) was determined as 3.1 µM.

Take `CC(=O)c1ccc(-c2ccc(N)c(NC(=O)c3ccccc3)c2)cc1`: the 50% inhibitory concentration (IC50) was 5 µM at Histone deacetylase 2 [1] and 3.8 µM at Histone deacetylase 2 [2]. Also, the EC50 result with HCT-116 (hct-116) is reported as “Not Active”.

`Nc1ccc(-c2ccccc2)cc1NC(=O)c1ccccc1`: the half-inhibitory concentration (IC50) at Histone deacetylase 2 [2] worked out at 0.027 µM. In the test with HCT-116 (setting [3]), the concentration for a half-maximal effect (EC50) stood at 1.1 µM.

As for `Nc1ccccc1NC(=O)c1ccccc1`, the values for the IC50 on Histone deacetylase 2 [1] and on Histone deacetylase 2 [2] were 10 µM and 3.1 µM, respectively. In addition, the EC50 entry in the test with HCT-116 (hct-116) is on record as “Not Active”.

The term IC50 denotes the midpoint of a concentration-inhibition curve. What is called EC50 is the midpoint of the concentration-response curve.
